The record followed here is PubChem BioAssay (NCI).

Where “and” joins values, the source holds several entries; their conditions need not be identical. Equal values may be shown once.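 Compound exposure: 48 hours, 5 concentrations, 96-well plates. Here, GI50 denotes the concentration required for 50% inhibition of growth. TGI marks complete inhibition of growth.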

What all share (assay): NCI-60 cell line screen, 48 h
Experiment [1] relates to HCC-2998 colon.
Experiment [2] relates to RPMI-8226 leukemia.
Experiment [3] concerns A498 renal.
The test system of experiment [4] is SNB-19 CNS.
For experiment [5], the system named is NCI/ADR-RES ovarian.
Experiment [6] deals with UACC-62 melanoma.
Experiment [7] deals with OVCAR-4 ovarian.
The subject of experiment [8] is OVCAR-3 ovarian.
The subject of experiment [9] is DU-145 prostate.
For experiment [10], the system named is SW-620 colon.

Turning to `COc1ccc(N(C)c2nc(N)nc3sc4c(c23)CCCC4)cc1`, the GI50 in experiment [1] was under 0.0146 µM; in [2] it was under 0.01 µM; in experiment [3], under 0.01 µM; in experiment [4], under 0.01 µM; in experiment [5] it was under 0.01 µM; in [6] it was under 0.01 µM. For the same compound, the GI50 in experiment [7] was under 0.01 µM; in experiment [8] it was 0.025 µM; in experiment [9], under 0.0166 µM; in experiment [10], under 0.01 µM. Besides, the TGI in [1] is 12 µM; in [2], 15.6 µM; in experiment [3], under 0.0209 µM; in experiment [4], 16.9 µM; in experiment [5], 14.4 µM; in [6], 15.8 µM. For the same compound, the TGI in [7] came to 15.3 µM; in experiment [8] it was 14.2 µM; in [9], 11.2 µM; in experiment [10], 16.4 µM.

With `COc1ccc(N=N/C(C(=O)C(F)(F)F)=C(\O)c2ccc(Cl)cc2)cc1`, the GI50 in experiment [1] is 4.01 µM; in [2], 5.96 µM; in experiment [3] it was 10.9 µM; in [4], 16.5 µM; in [5], 3.56 µM; in experiment [6], 3.91 µM. Moreover, the GI50 is 21.6 µM in experiment [7], 7.21 µM in experiment [8], 14.6 µM in experiment [9] and 4.36 µM in experiment [10]. The TGI is 16.2 µM in experiment [1]; 47.3 µM in [2]; 23.8 µM in experiment [3]; over 100 µM in [4]; 23.2 µM in experiment [5]; over 100 µM in experiment [6]. Moreover, the TGI was over 100 µM in [7], 35.4 µM in experiment [8], 70.8 µM in experiment [9] and over 100 µM in [10].

As to `CC[C@H](C)[C@H](NC(=O)[C@H]1CCCCN1C)C(=O)N(C)[C@H](C[C@@H](OC(C)=O)c1nc(C(=O)N[C@@H](Cc2ccccc2)C[C@H](C)C(=O)O)cs1)C(C)C`, the GI50 in [1] was 0.0013 µM and 0.00165 µM; in experiment [2], 0.000264 µM and 0.00165 µM; in experiment [3] it was 0.000548 µM and < 0.00165 µM; in experiment [4], 0.000595 µM and 0.00165 µM; in experiment [5], 0.00473 µM and 0.00165 µM; in experiment [8] it was 0.000234 µM and < 0.00165 µM. The GI50 in [9] was 0.000475 µM and 0.00165 µM; in [10] it was 0.000332 µM and 0.00165 µM. Also, the TGI in [1] was over 16.5 µM; in experiment [2] it was 6.56 µM; in [3] it was under 0.00165 µM; in experiment [4], over 16.5 µM; in experiment [6], over 16.5 µM; in experiment [7], over 16.5 µM. The TGI is 0.0119 µM and < 0.00165 µM in experiment [8]; 0.0367 µM in experiment [9]; over 16.5 µM in [10].

Regarding `CO[C@H]1C[C@@H]2CC[C@@H](C)[C@@](O)(O2)C(=O)C(=O)N2CCCC[C@H]2C(=O)O[C@H]([C@H](C)C[C@@H]2CC[C@@H](OCCO)[C@H](OC)C2)CC(=O)[C@H](C)C=C(C)[C@@H](O)[C@@H](OC)C(=O)[C@H](C)C[C@H](C)/C=C/C=C/C=C1C`, the GI50 was 4.48 µM in [1]; under 0.01 µM in experiment [2]; under 0.01 µM in experiment [3]; 3.26 µM in experiment [5]; 0.342 µM in experiment [6]; under 0.0124 µM in experiment [7]. Further, the GI50 in experiment [8] is under 0.01 µM; in experiment [10], 8.49 µM. Moreover, the TGI in [1] was 22.1 µM; in experiment [2] it was 14.1 µM; in [3] it was 16.3 µM; in experiment [4], 19.5 µM; in experiment [5], 31.7 µM; in experiment [6], 19.9 µM. Also, the TGI in experiment [7] is 17.1 µM; in experiment [8], 16.7 µM; in [9] it was 16.5 µM; in experiment [10], 23.9 µM.

With `CCN1CCN(C(=O)[C@]23CCC(C)(C)C[C@@H]2C2=CC[C@@H]4[C@@]5(C)C/C(=C/c6ccncc6)C(=O)C(C)(C)[C@@H]5CC[C@@]4(C)[C@]2(C)CC3)CC1`, the GI50 in experiment [1] is 1.47 µM; in [2] it was 1.25 µM; in [3] it was 1.7 µM; in experiment [4], 1.48 µM; in experiment [5], 1.48 µM; in [6], 1.46 µM. The GI50 is 1.54 µM in [7], 1.49 µM in experiment [8], 1.67 µM in [9] and 1.48 µM in experiment [10]. Besides, the TGI in [1] amounted to 2.89 µM; in [2], 4.64 µM; in experiment [3], 3.1 µM; in [4], 2.86 µM; in [5], 3.17 µM; in [6], 2.82 µM. The TGI was determined as 3.2 µM in experiment [7], 2.91 µM in [8], 3.19 µM in experiment [9] and 3.14 µM in experiment [10].

`CCCCCCCCCCCC[n+]1ccc2ccccc2c1`: the GI50 was 1.07 µM in experiment [1]; 0.295 µM in experiment [2]; 2.57 µM in [3]; 0.995 µM in experiment [4]; 9.37 µM in experiment [5]; 0.343 µM in [6]. Besides, the GI50 is 0.486 µM in [7], 0.579 µM in [8], 1.18 µM in experiment [9] and 0.996 µM in [10]. The TGI in experiment [1] came out at 2.32 µM; in [2], 0.949 µM; in [3], 8.76 µM; in [4] it was 2.22 µM; in experiment [5], 35.5 µM; in experiment [6], 1.63 µM. Further, the TGI was 2.33 µM in experiment [7], 1.89 µM in [8], 2.74 µM in experiment [9] and 2.56 µM in [10].

For the compound `CCN(CC)Cc1cc2[nH]c3c4ccc(Cl)cc4ncc3c2cc1OC`, the GI50 in experiment [1] was 2.22 µM and 3.33 µM; in experiment [2], 1.26 µM and 1.87 µM; in experiment [3] it was 15.9 µM and 10 µM; in experiment [4], 2.63 µM and 3.51 µM; in [5], 3.67 µM and 3.31 µM; in [6], 15.5 µM and 1.81 µM. In addition, the GI50 is 1.9 µM and 1.54 µM in experiment [7]; 1.89 µM and 2.02 µM in experiment [8]; 3 µM and 2.46 µM in experiment [9]; 2.3 µM and 1.91 µM in experiment [10]. Moreover, the TGI in [1] is 6.79 µM and 13.6 µM; in experiment [2], 5.09 µM and 4.56 µM; in experiment [3], 29.4 µM and 21.7 µM; in experiment [4] it was 7.51 µM and 11.9 µM; in experiment [5] it was 13.5 µM and 12 µM; in experiment [6], 29.4 µM and 3.46 µM. The TGI in [7] was 4.33 µM and 3.4 µM; in [8], 3.78 µM and 4.29 µM; in experiment [9], 9.18 µM and 6.38 µM; in [10] it was 6.72 µM and 4.44 µM.
